# Patent US8192962B2, “Processes for detecting toxic substances” (Daikin Industries, Ltd., priority 2001, dated 2012)
# Tested on: Transport facilitation protein genes
# Assay: DNA chip mRNA expression in yeast, transport facilitation protein genes (Table 5)
# Assay type: cell-based, Saccharomyces cerevisiae S288C
# How it was run: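 Measured as treated-to-untreated fluorescence ratio on a full-genome yeast DNA chip. Cells (S288C, YPD, 25° C.) were exposed in log phase for two hours to one chemical, dosed to curb growth without killing.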
structure (smiles),measurement,setting,value
"[Cl][Hg][Cl] [(3), HgCl2]",The level of expressed mRNA in the presence of chemical substance/The level of expressed mRNA in the absence of chemical substance,yeast gene YGR224W,1.2
same,The level of expressed mRNA in the presence of chemical substance/The level of expressed mRNA in the absence of chemical substance,yeast gene YGR260W,3.4
same,The level of expressed mRNA in the presence of chemical substance/The level of expressed mRNA in the absence of chemical substance,yeast gene YGR281W,1.3
same,The level of expressed mRNA in the presence of chemical substance/The level of expressed mRNA in the absence of chemical substance,yeast gene YHL035C,0.9
same,The level of expressed mRNA in the presence of chemical substance/The level of expressed mRNA in the absence of chemical substance,yeast gene YHL040C,1.5
same,The level of expressed mRNA in the presence of chemical substance/The level of expressed mRNA in the absence of chemical substance,yeast gene YHL047C,1.0
same,The level of expressed mRNA in the presence of chemical substance/The level of expressed mRNA in the absence of chemical substance,yeast gene YHR026W,1.9
same,The level of expressed mRNA in the presence of chemical substance/The level of expressed mRNA in the absence of chemical substance,yeast gene YHR092C,7.5
same,The level of expressed mRNA in the presence of chemical substance/The level of expressed mRNA in the absence of chemical substance,yeast gene YHR094C,5.3
same,The level of expressed mRNA in the presence of chemical substance/The level of expressed mRNA in the absence of chemical substance,yeast gene YHR175W,2.4
same,The level of expressed mRNA in the presence of chemical substance/The level of expressed mRNA in the absence of chemical substance,yeast gene YIL006W,1.4
same,The level of expressed mRNA in the presence of chemical substance/The level of expressed mRNA in the absence of chemical substance,yeast gene YIL022W,1.1
same,The level of expressed mRNA in the presence of chemical substance/The level of expressed mRNA in the absence of chemical substance,yeast gene YIL056W,6.2
same,The level of expressed mRNA in the presence of chemical substance/The level of expressed mRNA in the absence of chemical substance,yeast gene YIL088C,2.1
same,The level of expressed mRNA in the presence of chemical substance/The level of expressed mRNA in the absence of chemical substance,yeast gene YJL034W,3.0
same,The level of expressed mRNA in the presence of chemical substance/The level of expressed mRNA in the absence of chemical substance,yeast gene YJL212C,3.1
same,The level of expressed mRNA in the presence of chemical substance/The level of expressed mRNA in the absence of chemical substance,yeast gene YJL219W,3.1
same,The level of expressed mRNA in the presence of chemical substance/The level of expressed mRNA in the absence of chemical substance,yeast gene YJR077C,2.0
same,The level of expressed mRNA in the presence of chemical substance/The level of expressed mRNA in the absence of chemical substance,yeast gene YJR106W,1.5
same,The level of expressed mRNA in the presence of chemical substance/The level of expressed mRNA in the absence of chemical substance,yeast gene YJR121W,3.3
same,The level of expressed mRNA in the presence of chemical substance/The level of expressed mRNA in the absence of chemical substance,yeast gene YKL016C,0.7
same,The level of expressed mRNA in the presence of chemical substance/The level of expressed mRNA in the absence of chemical substance,yeast gene YKL146W,1.3
same,The level of expressed mRNA in the presence of chemical substance/The level of expressed mRNA in the absence of chemical substance,yeast gene YKR039W,1.3
same,The level of expressed mRNA in the presence of chemical substance/The level of expressed mRNA in the absence of chemical substance,yeast gene YKR067W,1.5
same,The level of expressed mRNA in the presence of chemical substance/The level of expressed mRNA in the absence of chemical substance,yeast gene YLL028W,4.6
same,The level of expressed mRNA in the presence of chemical substance/The level of expressed mRNA in the absence of chemical substance,yeast gene YLR081W,2.8
same,The level of expressed mRNA in the presence of chemical substance/The level of expressed mRNA in the absence of chemical substance,yeast gene YLR295C,1.1
same,The level of expressed mRNA in the presence of chemical substance/The level of expressed mRNA in the absence of chemical substance,yeast gene YLR348C,1.2
same,The level of expressed mRNA in the presence of chemical substance/The level of expressed mRNA in the absence of chemical substance,yeast gene YLR378C,2.6
same,The level of expressed mRNA in the presence of chemical substance/The level of expressed mRNA in the absence of chemical substance,yeast gene YMR011W,9.4
same,The level of expressed mRNA in the presence of chemical substance/The level of expressed mRNA in the absence of chemical substance,yeast gene YMR162C,1.1
same,The level of expressed mRNA in the presence of chemical substance/The level of expressed mRNA in the absence of chemical substance,yeast gene YMR203W,3.0
same,The level of expressed mRNA in the presence of chemical substance/The level of expressed mRNA in the absence of chemical substance,yeast gene YNL055C,5.5
same,The level of expressed mRNA in the presence of chemical substance/The level of expressed mRNA in the absence of chemical substance,yeast gene YNL259C,1.1
same,The level of expressed mRNA in the presence of chemical substance/The level of expressed mRNA in the absence of chemical substance,yeast gene YNR072W,0.5
same,The level of expressed mRNA in the presence of chemical substance/The level of expressed mRNA in the absence of chemical substance,yeast gene YOL119C,1.5
same,The level of expressed mRNA in the presence of chemical substance/The level of expressed mRNA in the absence of chemical substance,yeast gene YOL156W,2.5
same,The level of expressed mRNA in the presence of chemical substance/The level of expressed mRNA in the absence of chemical substance,yeast gene YOL163W,2.1
same,The level of expressed mRNA in the presence of chemical substance/The level of expressed mRNA in the absence of chemical substance,yeast gene YOR035C,0.3
same,The level of expressed mRNA in the presence of chemical substance/The level of expressed mRNA in the absence of chemical substance,yeast gene YOR130C,1.4
same,The level of expressed mRNA in the presence of chemical substance/The level of expressed mRNA in the absence of chemical substance,yeast gene YOR153W,5.1
same,The level of expressed mRNA in the presence of chemical substance/The level of expressed mRNA in the absence of chemical substance,yeast gene YOR273C,1.7
same,The level of expressed mRNA in the presence of chemical substance/The level of expressed mRNA in the absence of chemical substance,yeast gene YOR316C,1.5
same,The level of expressed mRNA in the presence of chemical substance/The level of expressed mRNA in the absence of chemical substance,yeast gene YOR332W,1.0
same,The level of expressed mRNA in the presence of chemical substance/The level of expressed mRNA in the absence of chemical substance,yeast gene YOR348C,1.2
same,The level of expressed mRNA in the presence of chemical substance/The level of expressed mRNA in the absence of chemical substance,yeast gene YPL036W,2.8
same,The level of expressed mRNA in the presence of chemical substance/The level of expressed mRNA in the absence of chemical substance,yeast gene YPL134C,1.6
same,The level of expressed mRNA in the presence of chemical substance/The level of expressed mRNA in the absence of chemical substance,yeast gene YPL271W,4.1
same,The level of expressed mRNA in the presence of chemical substance/The level of expressed mRNA in the absence of chemical substance,yeast gene YPR192W,0.9
same,The level of expressed mRNA in the presence of chemical substance/The level of expressed mRNA in the absence of chemical substance,yeast gene YPR194C,0.5
